Test results: paper PMC5432571 (Frontiers in Molecular Neuroscience, 2017)
Like-named read-outs stand apart in the source and are kept apart here.

How the values were obtained:
Type in all cases: cell-based
α2β GlyR = target: T1, α2β GlyR (Homo sapiens, UniProt P23416+P48167); assay: Whole-cell patch-clamp of glycine-induced currents, heteromeric α2β GlyR expressed in CHO cells; conditions: glycine 30 μM
T1 construct: expressed in transfected cells; host or cells: CHO cells
Experimental: (§1) The experiments were carried out on cultured Chinese hamster ovary (CHO) cells obtained from the American Type Tissue Culture Collection (ATCC, Molsheim, France) that were maintained in culture conditions as previously described (Mukhtarov et al., [2013]; Maleeva et al., [2015]).
(§2) One day before transfection, cells were plated on the cover slips (12 mm in diameter) and placed inside 35-mm cell culture dishes with 2 ml of medium. Transfection was performed using the Lipofectamine 3000 protocol (Life Technology, USA). To facilitate identification of transfected cells a green fluorescent protein (GFP) was added to the transfection mixture. For expression of functional heteromeric receptors, cells were simultaneously transfected with cDNAs of α and β subunits in the ratio 1:10. Three hours after the initial exposure of cells to the cDNAs the culture medium was replaced with that containing strychnine (1 μM), which prevents spontaneous activation of GlyRs. Electrophysiological recordings were performed in the fluorescent cells 24–72 h after transfection.
(§3) Whole-cell and outside-out recordings were performed at room temperature (20–25°C) using an EPC-9 amplifier (HEKA Elektronik, Germany). Cells were continuously superfused with external solution containing (mM): NaCl 140, CaCl2 2, KCl 2.8, MgCl2 4, HEPES 20, glucose 10; pH 7.4; 320–330 mOsm. Intracellular solution used for filling recording patch pipettes contained (mM): CsCl 140, CaCl2 6, MgCl2 2, MgATP 2, NaGTP 0.4, HEPES/CsOH 10, BAPTA (tetrapotassium salt) 2; pH 7.3; 290 mOsm. Two different protocols of solutions application were used in this study. […] A “ramp protocol” implies the gradual change of Vhold alternately from −80 to +80 mV and from +80 to −80 mV during 1 s, Vhold was fixed at −80 or +80 mV at the beginning and at the end of the ramp for 500 ms (Figure 2B).
(§4) Recording pipettes were pulled from borosilicate glass capillaries (Harvard Apparatus Ltd, USA) and had resistances of 5–10 MOhm. For the rapid replacement of the solutions, the fast application system was used. Three parallel rectangular tubes (100 × 100 μm) were positioned 40–50 μm above the recorded cell. The movement of the tubes was controlled by a computer-driven fast exchange system (SF 77A Perfusion Fast-Step, Warner, USA) allowing a 10–90% solution exchange in 3–5 ms, as measured by open electrode controls (1/10 external solution/water). Cells with low input resistance (<150 MOhm) and a rapid run-down (>30% with repetitive application) were excluded from analysis.
(§5) Electrophysiological recordings were performed using PatchMaster (HEKA Electronic, Germany) software.

α3 GlyR = target: T2, α3 GlyR (Homo sapiens, UniProt O75311); assay: Whole-cell patch-clamp of glycine-induced currents, α3 GlyR expressed in CHO cells; conditions: glycine 100 μM; for inhibition at 30 µM / inhibition at 300 µM: CHO, long application protocol, read-out: inhibition of α3 GlyR-mediated currents; for inhibition at 30 µM: NFA 30 μM; for inhibition at 300 µM: NFA 300 μM
T2 construct: expressed in transfected cells; host or cells: CHO cells
T2 sequence (O75311 34-464): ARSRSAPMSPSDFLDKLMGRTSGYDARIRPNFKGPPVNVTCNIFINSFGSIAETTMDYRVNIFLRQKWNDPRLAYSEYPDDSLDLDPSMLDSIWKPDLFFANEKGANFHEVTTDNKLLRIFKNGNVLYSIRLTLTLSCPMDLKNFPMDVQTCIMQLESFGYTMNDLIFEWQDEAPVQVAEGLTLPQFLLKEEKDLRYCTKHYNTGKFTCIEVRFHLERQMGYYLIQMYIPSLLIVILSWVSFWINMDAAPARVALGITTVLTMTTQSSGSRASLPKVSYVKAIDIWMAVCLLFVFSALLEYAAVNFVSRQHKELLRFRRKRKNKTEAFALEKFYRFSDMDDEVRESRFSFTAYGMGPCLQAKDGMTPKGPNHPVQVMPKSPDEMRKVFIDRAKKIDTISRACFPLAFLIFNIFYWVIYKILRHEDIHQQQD
Experimental: as §1, §2, §3, §4, §5
It is well documented that α3 GlyRs rapidly desensitize (Nikolic et al., [1998]) and this complicates accurate estimation of the NFA blocking potency.

α2 GlyR = target: T3, α2 GlyR (Homo sapiens, UniProt P23416); assay: Whole-cell patch-clamp of glycine-induced currents, α2 GlyR expressed in CHO cells; conditions: for glycine-evoked current, % from the control: NFA 10 μM
T3 construct: expressed in transfected cells; host or cells: CHO cells
T3 sequence (P23416 28-452 isoform P23416-2 limits assumed): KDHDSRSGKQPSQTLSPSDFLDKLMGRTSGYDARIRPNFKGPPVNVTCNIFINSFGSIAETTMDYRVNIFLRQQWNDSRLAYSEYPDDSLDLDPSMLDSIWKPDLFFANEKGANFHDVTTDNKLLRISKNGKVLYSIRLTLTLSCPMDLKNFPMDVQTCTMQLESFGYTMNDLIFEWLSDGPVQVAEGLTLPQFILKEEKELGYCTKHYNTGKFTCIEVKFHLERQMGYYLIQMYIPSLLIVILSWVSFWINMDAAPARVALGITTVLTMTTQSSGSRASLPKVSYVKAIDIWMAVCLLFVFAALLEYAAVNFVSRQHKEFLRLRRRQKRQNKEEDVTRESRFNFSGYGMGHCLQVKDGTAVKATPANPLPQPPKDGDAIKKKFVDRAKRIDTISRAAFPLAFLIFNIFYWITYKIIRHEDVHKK
Experimental: as §1, §2, §3, §4, §5
The fractional electrical distance from the external side of the membrane (δ) at which bound NFA blocked the current was calculated using the Woodhull equation: IC50(V)=IC50(0) exp (−δFV/RT), where IC50(V) is IC50 at the given membrane potential, IC50(0) – at 0 mV, V – membrane potential and F, R, T have their usual meanings. δ was determined from a plot of IC50 values against membrane potential.

[1] = +30 mV, representative, read-out: NFA IC50 (representative IC50 curve)
[2] = +80 mV, representative, read-out: NFA IC50 (representative IC50 curve)
[3] = −30 mV, representative, read-out: NFA IC50 (representative IC50 curve)
[4] = −80 mV, representative, read-out: NFA IC50 (representative IC50 curve)

T1 sequence (P48167 23-497, one chain of several): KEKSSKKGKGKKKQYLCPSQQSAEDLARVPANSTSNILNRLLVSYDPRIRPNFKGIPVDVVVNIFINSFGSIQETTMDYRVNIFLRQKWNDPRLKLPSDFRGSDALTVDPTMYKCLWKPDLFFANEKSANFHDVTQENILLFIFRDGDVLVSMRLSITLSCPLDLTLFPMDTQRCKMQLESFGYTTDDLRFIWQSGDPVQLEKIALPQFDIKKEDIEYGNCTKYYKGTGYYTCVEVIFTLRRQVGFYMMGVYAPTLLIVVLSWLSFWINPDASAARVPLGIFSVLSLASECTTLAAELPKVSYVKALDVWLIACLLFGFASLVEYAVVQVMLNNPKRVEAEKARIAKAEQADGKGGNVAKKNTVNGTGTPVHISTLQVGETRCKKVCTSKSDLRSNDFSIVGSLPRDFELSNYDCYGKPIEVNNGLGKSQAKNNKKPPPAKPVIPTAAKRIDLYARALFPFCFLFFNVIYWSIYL

O=C(O)c1cccnc1Nc1cccc(C(F)(F)F)c1 [NFA, Niflumic acid]
IC50 (α2β GlyR; [1]): 24 µM | IC50 (α2β GlyR; +80 mV, mean ± SEM, read-out: IC50 of NFA): 20 ± 8 µM | IC50 (α2β GlyR; [2]): 22 µM | IC50 (α2β GlyR; [3]): 47 µM | IC50 (α2β GlyR; −80 mV, mean ± SEM, read-out: IC50 of NFA): 107 ± 37 µM | IC50 (α2β GlyR; [4]): 84 µM | IC50 (α3 GlyR; [1]): 23 µM | IC50 (α3 GlyR; [2]): 10 µM | inhibition at 30 µM (α3 GlyR; +30 mV): 62 ± 5% | inhibition at 30 µM (α3 GlyR; −30 mV): 32 ± 4% | inhibition at 300 µM (α3 GlyR; +30 mV): 90 ± 2% | inhibition at 300 µM (α3 GlyR; −30 mV): 86 ± 5% | IC50 (α3 GlyR; MP +80 mV, mean ± SEM, read-out: IC50 of NFA): 16 ± 6 µM | IC50 (α3 GlyR; MP −80 mV, mean ± SEM, read-out: IC50 of NFA): 86 ± 14 µM | IC50 (α3 GlyR; [3]): 78 µM | IC50 (α3 GlyR; [4]): 117 µM | IC50 (α2 GlyR; +30 mV, glycine 30 μM, representative, read-out: NFA IC50 (representative IC50 curve)): 17 µM | IC50 (α2 GlyR; +30 mV, glycine 100 μM, representative, read-out: NFA IC50 (representative IC50 curve)): 12 µM | IC50 (α2 GlyR; +80 mV, glycine 30 μM, ramp protocol, mean ± SEM, read-out: IC50 of NFA): 9 ± 2 µM | IC50 (α2 GlyR; +80 mV, glycine 30 μM, representative, read-out: NFA IC50 (representative IC50 curve)): 12 µM | IC50 (α2 GlyR; +80 mV, glycine 100 μM, ramp protocol, mean ± SEM, read-out: IC50 of NFA): 9 ± 2 µM | IC50 (α2 GlyR; +80 mV, glycine 100 μM, representative, read-out: NFA IC50 (representative IC50 curve)): 7 µM | inhibition at 10 µM (α2 GlyR; CHO): ~50% | glycine-evoked current, % from the control (α2 GlyR; MP +80 mV): 43 ± 5% | glycine-evoked current, % from the control (α2 GlyR; MP −80 mV): 89 ± 4% | Hill coefficient (nH) of NFA interaction (α2 GlyR; membrane potential 30 mV, glycine 30 μM): 1.1 ± 0.14 | Hill coefficient (nH) of NFA interaction (α2 GlyR; membrane potential 50 mV, glycine 30 μM): 1 ± 0.14 | Hill coefficient (nH) of NFA interaction (α2 GlyR; membrane potential 70 mV, glycine 30 μM): 1 ± 0.13 | Hill coefficient (nH) of NFA interaction (α2 GlyR; membrane potential 80 mV, glycine 30 μM): 0.97 ± 0.09 | Hill coefficient (nH) of NFA interaction (α2 GlyR; membrane potential −50 mV, glycine 30 μM): 1.14 ± 0.12 | Hill coefficient (nH) of NFA interaction (α2 GlyR; membrane potential −70 mV, glycine 30 μM): 1.04 ± 0.08 | Hill coefficient (nH) of NFA interaction (α2 GlyR; membrane potential −80 mV, glycine 30 μM): 1.05 ± 0.06 | Hill coefficient (nH) of NFA inhibitory action (α2 GlyR; overall statement in discussion): ~1 | IC50 (α2 GlyR; read-out: IC50 of NFA): 133 ± 20 µM | IC50 (α2 GlyR; −30 mV, glycine 30 μM, representative, read-out: NFA IC50 (representative IC50 curve)): 75 µM | IC50 (α2 GlyR; −30 mV, glycine 100 μM, representative, read-out: NFA IC50 (representative IC50 curve)): 39 µM | IC50 (α2 GlyR; −80 mV, glycine 30 μM, ramp protocol, mean ± SEM, read-out: IC50 of NFA): 166 ± 28 µM | IC50 (α2 GlyR; −80 mV, glycine 30 μM, representative, read-out: NFA IC50 (representative IC50 curve)): 155 µM | IC50 (α2 GlyR; −80 mV, glycine 100 μM, representative, read-out: NFA IC50 (representative IC50 curve)): 100 µM
